Assay [1] has as its target T1, Sterol O-acyltransferase 2 (Homo sapiens) (UniProt O75908).
T1 sequence (whole entry): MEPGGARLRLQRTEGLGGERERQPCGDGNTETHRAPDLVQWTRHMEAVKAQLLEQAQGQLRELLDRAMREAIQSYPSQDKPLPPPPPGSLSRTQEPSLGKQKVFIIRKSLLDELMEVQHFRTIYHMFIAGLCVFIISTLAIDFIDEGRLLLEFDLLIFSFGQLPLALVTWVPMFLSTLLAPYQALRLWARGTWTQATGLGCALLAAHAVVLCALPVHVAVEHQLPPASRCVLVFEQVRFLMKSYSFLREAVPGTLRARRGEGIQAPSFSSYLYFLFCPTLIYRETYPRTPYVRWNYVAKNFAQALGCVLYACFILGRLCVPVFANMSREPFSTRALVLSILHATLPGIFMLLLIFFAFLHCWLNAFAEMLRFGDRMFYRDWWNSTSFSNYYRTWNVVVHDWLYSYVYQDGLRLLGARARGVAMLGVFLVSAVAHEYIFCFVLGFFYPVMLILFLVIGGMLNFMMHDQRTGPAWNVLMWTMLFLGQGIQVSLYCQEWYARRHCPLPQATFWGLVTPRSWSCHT
Put plainly: Inhibition of human ACAT2 at 1 mM.

For assay [2], the target named is T2, Sterol O-acyltransferase 2 (Chlorocebus aethiops, UniProt O77759).
T2 sequence (O77759 whole entry): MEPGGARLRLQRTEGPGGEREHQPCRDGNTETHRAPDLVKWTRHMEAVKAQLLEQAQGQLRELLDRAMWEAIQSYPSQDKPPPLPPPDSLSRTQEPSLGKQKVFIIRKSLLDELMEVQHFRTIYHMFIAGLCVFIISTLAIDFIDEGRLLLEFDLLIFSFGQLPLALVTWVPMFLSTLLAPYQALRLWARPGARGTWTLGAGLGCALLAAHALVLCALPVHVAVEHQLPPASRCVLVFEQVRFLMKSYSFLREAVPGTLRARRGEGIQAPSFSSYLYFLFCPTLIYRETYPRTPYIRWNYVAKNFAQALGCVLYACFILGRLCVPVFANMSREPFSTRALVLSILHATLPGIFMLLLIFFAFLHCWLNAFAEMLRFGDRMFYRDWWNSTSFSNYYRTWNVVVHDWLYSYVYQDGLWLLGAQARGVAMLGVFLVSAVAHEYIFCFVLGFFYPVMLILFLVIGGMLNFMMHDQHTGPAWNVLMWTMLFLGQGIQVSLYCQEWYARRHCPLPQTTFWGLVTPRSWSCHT
Put plainly: Inhibition of African green monkey ACAT2 expressed in mouse AC29 cells assessed as reduction in esterification of NBD-cholesterol preincubated for 20 mins followed by NBD-cholesterol addition measured after 6 hrs by high-performance TLC method. The assay is classed as cell-based.

The test system of assay [3] is Mus musculus. Put plainly: Reduction in accumulation of amyloid plaque in C57BL/6 mouse overexpressing human APP751 with London (V717I) and Swedish ([…]) mutation administered as pellets into bloodstream. Format: functional.
Assay [4] has as its system Mus musculus. Put plainly: Reduction in membrane/insoluble amyloid beta level in C57BL/6 mouse overexpressing human APP751 with London (V717I) and Swedish ([…]) mutation administered as pellets into bloodstream. The assay is classed as functional.
Assay [5] relates to Mus musculus. Put plainly: Reduction in brain cholesteryl esters in C57BL/6 mouse overexpressing human APP751 with London (V717I) and Swedish ([…]) mutation administered as pellets into bloodstream. Format: functional.
In assay [6] the test system is Mus musculus. Put plainly: Reduction in soluble amyloid beta42 in brain homogenates of C57BL/6 mouse overexpressing human APP751 with London (V717I) and Swedish ([…]) mutation administered as pellets into bloodstream. Format: functional.
Assay [7] has as its target T2, Sterol O-acyltransferase 2. Put plainly: Inhibition of African green monkey ACAT2 expressed in CHO cells assessed as reduction in [14C]CE formation using [1-14C]oleoyl-CoA measured after 6 hrs by TLC method. The assay is classed as cell-based.
The target of assay [8] is T3, Sterol O-acyltransferase 2 (Homo sapiens, UniProt O75908).
T3 sequence (O75908 whole entry): T1 sequence (whole entry)
Put plainly: Inhibition of ACAT2 (unknown origin).

The target of assay [9] is T4, Sterol O-acyltransferase 1 (Homo sapiens, UniProt P35610).
T4 sequence (P35610 whole entry): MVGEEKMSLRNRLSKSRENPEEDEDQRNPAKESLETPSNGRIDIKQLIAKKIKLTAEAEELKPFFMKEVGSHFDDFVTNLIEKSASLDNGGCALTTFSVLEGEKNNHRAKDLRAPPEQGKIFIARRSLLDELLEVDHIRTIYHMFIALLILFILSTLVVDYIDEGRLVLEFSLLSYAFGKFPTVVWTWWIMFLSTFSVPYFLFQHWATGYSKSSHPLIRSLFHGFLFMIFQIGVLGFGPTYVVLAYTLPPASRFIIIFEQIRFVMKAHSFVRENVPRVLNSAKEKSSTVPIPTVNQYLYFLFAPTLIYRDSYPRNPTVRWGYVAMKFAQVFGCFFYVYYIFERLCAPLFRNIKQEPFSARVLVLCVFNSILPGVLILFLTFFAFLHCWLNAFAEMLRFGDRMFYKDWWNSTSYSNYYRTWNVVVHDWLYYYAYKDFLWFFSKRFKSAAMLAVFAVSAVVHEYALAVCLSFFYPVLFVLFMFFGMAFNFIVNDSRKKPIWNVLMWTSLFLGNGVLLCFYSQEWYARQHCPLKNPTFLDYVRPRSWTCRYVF
Put plainly: Inhibition of human ACAT1.

Assay [10] addresses T3, Sterol O-acyltransferase 2. Put plainly: Inhibition of human ACAT2.
The species named for another assay is Homo sapiens. Put plainly: Selectivity ratio of IC50 for human ACAT2 to IC50 for human ACAT1.
The target in assay [11] is T5, Sterol O-acyltransferase 1 (Mus musculus) (UniProt Q61263).
T5 sequence (whole entry): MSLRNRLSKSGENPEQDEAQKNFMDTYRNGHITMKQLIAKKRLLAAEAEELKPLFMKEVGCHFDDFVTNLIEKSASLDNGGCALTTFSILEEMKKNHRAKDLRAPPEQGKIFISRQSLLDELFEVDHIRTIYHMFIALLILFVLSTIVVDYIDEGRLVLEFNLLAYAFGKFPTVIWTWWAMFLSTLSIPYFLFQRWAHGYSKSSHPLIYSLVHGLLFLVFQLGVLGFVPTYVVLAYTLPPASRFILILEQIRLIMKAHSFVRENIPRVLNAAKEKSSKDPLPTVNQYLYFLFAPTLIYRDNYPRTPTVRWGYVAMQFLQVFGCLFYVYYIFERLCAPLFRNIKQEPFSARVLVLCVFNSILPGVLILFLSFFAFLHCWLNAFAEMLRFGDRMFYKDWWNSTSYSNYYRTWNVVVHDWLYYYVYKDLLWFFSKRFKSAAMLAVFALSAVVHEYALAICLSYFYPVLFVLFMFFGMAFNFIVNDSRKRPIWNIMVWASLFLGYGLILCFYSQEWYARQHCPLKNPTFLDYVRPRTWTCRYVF
Put plainly: Inhibition of ACAT1 in mouse N9 cells. Format: cell-based.

Assay [12] deals with T5, Sterol O-acyltransferase 1 (Mus musculus). Put plainly: Inhibition of ACAT1 in mouse N9 cells assessed as reduction in oligomeric amyloid beta 1 to 42 pretreated for 24 hrs followed by oligomeric amyloid beta 1 to 42 addition measured after 12 hrs by Western blot analysis relative to control. The assay is classed as cell-based. The note with it: concentration not given here.

Assay [13] shares this target. Put plainly: Inhibition of ACAT1 in wild type mouse microglia assessed as increase in clearance of oligomeric amyloid beta at 1 uM pretreated for 24 hrs followed by oligomeric amyloid beta addition measured after 18 hrs by western blot analysis relative to control.
The target is the same in assay [14]. Put plainly: Inhibition of ACAT1 in mouse N9 cells assessed as increase in Cys-amyloid beta 1 to 42 uptake pretreated for 8 hrs followed by Cys-amyloid beta 1 to 42 addition measured after 3 hrs by flow cytometry relative to control. Also on record: scale not given: the % may be the effect or the level left. Format: cell-based. In general terms: A flow cytometer gives signals particle by particle.

Assay [15] has the same target. Put plainly: Inhibition of ACAT1 in mouse N9 cells assessed as increase in TFEB target genes mRNA expression measured after 8 hrs by qPCR analysis. Format: cell-based.
Assay [16] has the same target. Put plainly: Inhibition of ACAT1 in mouse N9 cells assessed as increase in late endosomes/lysosomes volume measured after 8 hrs by Lyso tracker staining based flow cytometry relative to control. The assay is classed as cell-based. The note with it: concentration not given here.
The target is the same in assay [17]. Put plainly: Inhibition of ACAT1 in mouse N9 cells at 0.1 uM measured after 8 hrs by Lyso tracker staining based flow cytometry relative to control. Format: cell-based.
For assay [18] the target is unchanged. Put plainly: Inhibition of ACAT1 in mouse N9 cells assessed as increase in lysosome biogenesis by measuring Lyso tracker fluorescence measured after 8 hrs by Lyso tracker staining based flow cytometry. Format: cell-based.
Assay [19] has the same target. Put plainly: Inhibition of ACAT1 in mouse N9 cells assessed as induction of autophagy by measuring LC3-2 at 0.1 uM by Western blot analysis. The assay is classed as cell-based. For orientation: In western blotting, separated proteins are transferred to a membrane and probed.
Assay [20] has the same target. Put plainly: Inhibition of ACAT1 in mouse N9 cells assessed as increase in autophagic flux by measuring LC3-2 levels in presence of Torin-1 by Western blot analysis. Format: cell-based.
Assay [21] shares this target. Put plainly: Inhibition of ACAT1 in mouse N9 cells assessed as effect on […] by measuring p62 levels in presence of Torin-1 by Western blot analysis. Format: cell-based.
For assay [22] the target is unchanged. Put plainly: Inhibition of ACAT1 in TFEB knock-down mouse N9 cells assessed as autophagosome formation by measuring LC3-2 levels. The assay is classed as cell-based.
For assay [23] the target is unchanged. Put plainly: Inhibition of ACAT1 in mouse N9 cells assessed as effect on autophagosome formation by measuring LC3-2 levels in presence of squalene synthase inhibitor CP-340868. Format: cell-based.

Activity calls are given as the source filed them. The calls are words filed in the database; no cut-off is given here. A value given as a limit tells only on which side of the number the result lay.

Take `COc1ccc([C@@H](O)[C@@H](C)Oc2ccc([C@H]3O[C@H](c4ccc(O[C@H](C)[C@H](O)c5ccc6c(c5)OCO6)c(OC)c4)[C@H](C)[C@H]3C)cc2OC)cc1OC`: in assay [1], the inhibition (commonly the drop in the measured response relative to a control, in per cent) was found to be 32%.
With `CC(C)c1cccc(C(C)C)c1NC(=O)CC(=O)C(Cc1ccccc1)Cc1ccc(OC(=O)CCCCCCN2CCCCCC2=O)cc1` (centres undefined), the concentration for half-maximal inhibition (IC50) – broadly, the concentration that inhibits the measured activity by half – in assay [2] was 0.53 µM.
As for `CCCCCCCC[C@H](SCCCCCC)C(=O)Nc1c(SC)cc(C)nc1SC`, the “inhibition (INH)” value with Mus musculus [3] is given as 88 - 99%; in the assay with Mus musculus [4] it was 83 - 96%; in the assay with Mus musculus [5] it was 86%; with Mus musculus [6], 34%.
In the case of `CCCC[C@H](C)[C@@H]1CC(=O)N[C@@H](Cc2ccccc2)C(=O)N[C@@H](C)C(=O)N[C@H](CC(C)C)C(=O)O1` [BEAUVERIOLIDE I], in assay [7], the IC50 came out at 20 µM.
The molecule `CCCCCCCCCCCCS[C@H](C(=O)Nc1cc(C)c(O)c(C)c1C)c1ccccc1` [EFLUCIMIBE] returned an IC50 in assay [8] of 0.11 µM.
`CCOC(=O)OC(=O)OCC` [DIETHYL PYROCARBONATE]: the figures for the 50% inhibitory concentration (IC50) in assay [9] and in assay [10] were 44 µM and 170 µM, respectively. Also, in the assay listed under Homo sapiens, the Ratio IC50 amounted to 4.
For `CSc1cc(C)nc(SC)c1NC(=O)CN1CCN(CCSc2nc3ccccc3[nH]2)CC1`, the inhibition result in assay [11] was “Dose-dependent effect”; in assay [12], 58%; in assay [13], less than 65%; in assay [16], 27%; in assay [17], 80%. Besides, in assay [14], the Activity amounted to 23%. In addition, the inhibition entry in [15], in assay [18], in assay [19], in assay [20], in [21] and in assay [22] was “Active” each time. In addition, the inhibition result in assay [23] is “Active”.

The values are drawn from ChEMBL document CHEMBL3882390, “Method for selectively inhibiting ACAT1 in the treatment of neurodegenerative diseases” (2014).
